Measured values from patent US9926332B2, “Dihydro-oxazinobenzodiazepine compounds, a process for their preparation and pharmaceutical compositions containing them” (priority 2014, dated 2018).
Where two headings read alike, the source gives them in different places.

How the values were obtained:
[1] = target: T1, α1 subunit of the human GABAA receptor in association with the beta2 (short) and gamma2 (long) subunits (Homo sapiens, UniProt P14867+P18507+P47870); assay: GABA-induced membrane potential response (FMP dye, FlexStation3) in HEK-293 cells expressing GABAA α1; format: cell-based
T1 construct: expressed in transfected cells; host or cells: HEK-293
T1 sequence (P14867 28-456): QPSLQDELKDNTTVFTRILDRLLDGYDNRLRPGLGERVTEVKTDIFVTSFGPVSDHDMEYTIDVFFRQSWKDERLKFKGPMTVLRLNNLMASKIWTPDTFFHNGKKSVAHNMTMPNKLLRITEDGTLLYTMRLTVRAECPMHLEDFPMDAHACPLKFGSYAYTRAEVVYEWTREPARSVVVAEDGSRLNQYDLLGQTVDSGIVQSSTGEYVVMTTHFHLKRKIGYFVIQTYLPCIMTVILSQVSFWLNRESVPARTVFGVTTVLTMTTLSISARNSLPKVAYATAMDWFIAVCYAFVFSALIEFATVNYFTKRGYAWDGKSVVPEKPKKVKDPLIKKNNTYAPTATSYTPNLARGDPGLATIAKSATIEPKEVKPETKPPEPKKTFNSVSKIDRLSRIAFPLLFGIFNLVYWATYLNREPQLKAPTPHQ
T1 sequence (P47870 26-474 isoform P47870-1 partner limits assumed): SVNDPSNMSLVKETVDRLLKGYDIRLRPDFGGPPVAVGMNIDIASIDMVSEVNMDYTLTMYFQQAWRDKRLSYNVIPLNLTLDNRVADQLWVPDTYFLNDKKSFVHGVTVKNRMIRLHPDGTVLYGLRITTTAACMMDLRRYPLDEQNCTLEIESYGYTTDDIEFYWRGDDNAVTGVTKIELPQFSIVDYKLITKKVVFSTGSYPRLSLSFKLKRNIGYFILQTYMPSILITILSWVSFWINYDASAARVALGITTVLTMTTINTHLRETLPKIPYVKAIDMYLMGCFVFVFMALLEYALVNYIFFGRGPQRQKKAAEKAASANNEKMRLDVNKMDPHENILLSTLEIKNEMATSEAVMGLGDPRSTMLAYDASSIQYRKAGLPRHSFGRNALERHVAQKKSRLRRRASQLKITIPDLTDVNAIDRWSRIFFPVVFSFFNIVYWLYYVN
T1 sequence (P18507 40-475 partner): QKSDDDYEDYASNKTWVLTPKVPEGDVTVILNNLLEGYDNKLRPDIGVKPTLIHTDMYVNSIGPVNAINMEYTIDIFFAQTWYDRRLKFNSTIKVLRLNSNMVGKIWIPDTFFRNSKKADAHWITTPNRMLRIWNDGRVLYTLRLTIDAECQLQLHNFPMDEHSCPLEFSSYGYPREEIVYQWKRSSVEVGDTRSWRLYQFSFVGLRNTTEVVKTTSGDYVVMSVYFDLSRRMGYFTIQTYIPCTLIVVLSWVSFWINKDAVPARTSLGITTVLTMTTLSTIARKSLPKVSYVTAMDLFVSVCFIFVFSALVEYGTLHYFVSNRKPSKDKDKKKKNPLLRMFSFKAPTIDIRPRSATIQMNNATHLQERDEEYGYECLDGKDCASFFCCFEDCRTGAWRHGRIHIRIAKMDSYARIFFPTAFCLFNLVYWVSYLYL

[2] = target: T2, α2 subunit of the human GABAA receptor in association with the beta2 (short) and gamma2 (long) subunits (Homo sapiens, UniProt P18507+P47869+P47870); assay: GABA-induced membrane potential response (FMP dye, FlexStation3) in HEK-293 cells expressing GABAA α2; format: cell-based
T2 construct: expressed in transfected cells; host or cells: HEK-293
T2 sequence (P47869 29-451): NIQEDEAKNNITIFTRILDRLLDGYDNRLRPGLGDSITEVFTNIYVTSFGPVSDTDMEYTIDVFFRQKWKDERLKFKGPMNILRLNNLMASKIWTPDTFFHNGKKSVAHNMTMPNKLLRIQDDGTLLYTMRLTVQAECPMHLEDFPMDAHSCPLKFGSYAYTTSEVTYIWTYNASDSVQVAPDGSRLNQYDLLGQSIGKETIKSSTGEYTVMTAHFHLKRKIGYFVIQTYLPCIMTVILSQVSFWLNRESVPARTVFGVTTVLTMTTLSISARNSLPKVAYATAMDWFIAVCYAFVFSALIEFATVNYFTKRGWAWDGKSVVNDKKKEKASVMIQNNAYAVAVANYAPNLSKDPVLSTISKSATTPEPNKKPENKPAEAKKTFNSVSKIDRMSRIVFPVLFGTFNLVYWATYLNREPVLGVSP
T2 sequence (P47870 26-474 isoform P47870-1 partner limits assumed): as the sequence (P47870 26-474 isoform P47870-1 partner limits assumed) above
T2 sequence (P18507 40-475 partner): as the sequence (P18507 40-475 partner) above
Procedure: (§1) The compounds are tested on HEK-293 (Human Embryonic Kidney) cells stably expressing the […] or the α5 subunit of the human GABAA receptor in association with the beta2 (short) and gamma2 (long) subunits, thus forming heteropentameric GABAA receptors. The cells are maintained in the presence of a selection of three antibiotics—neomycin, zeocin and puromycin—in a Dulbecco medium (DMEM) containing 10% (v/v) foetal bovine serum The membrane potential is monitored using the fluorescent blue FMP dye (Molecular Devices), following the instructions of the manufacturer. On the day before the experiment, the cells are transferred to 96-well plates (in a density of 50,000 cells/well). 18-24 h later the cells are washed and incubated with the compounds under test plus the FMP dye. Recording of the fluorescence signal in a FlexStation3 plate reader (Molecular Devices, USA) is started 40 min later. After 30 sec of monitoring baseline fluorescence GABA is added to evoke a fluorescent signal reporting depolarisation of the membrane potential across the plasma membrane. The GABA induced responses are recorded for 90 seconds. Data are calculated by subtracting the average baseline value and computing the area under the curve of the fluorescence signal induced by GABA. The IC50 values for α5 and the EC50 values for α2 of the tested compounds are determined from log concentration versus response curves obtained by non-linear regression using SoftMax Pro software (Molecular Devices, USA).

[3] = target: T3, α5 subunit of the human GABAA receptor in association with the beta2 (short) and gamma2 (long) subunits (Homo sapiens, UniProt P18507+P31644+P47870); assay: GABA-induced membrane potential response (FMP dye, FlexStation3) in HEK-293 cells expressing GABAA α5; format: cell-based
T3 construct: expressed in transfected cells; host or cells: HEK-293
T3 sequence (P31644 32-462): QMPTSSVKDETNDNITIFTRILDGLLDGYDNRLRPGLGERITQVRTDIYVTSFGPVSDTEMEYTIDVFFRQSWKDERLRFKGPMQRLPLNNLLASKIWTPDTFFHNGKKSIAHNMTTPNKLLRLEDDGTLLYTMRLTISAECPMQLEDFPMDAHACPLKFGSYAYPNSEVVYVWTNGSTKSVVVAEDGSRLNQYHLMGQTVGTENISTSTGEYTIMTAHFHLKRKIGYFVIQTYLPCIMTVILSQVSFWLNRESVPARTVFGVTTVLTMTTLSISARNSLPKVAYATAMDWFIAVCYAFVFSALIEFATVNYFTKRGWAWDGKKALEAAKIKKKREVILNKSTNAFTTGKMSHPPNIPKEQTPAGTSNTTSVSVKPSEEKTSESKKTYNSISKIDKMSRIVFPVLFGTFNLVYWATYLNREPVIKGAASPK
T3 sequence (P47870 26-474 isoform P47870-1 partner limits assumed): as the sequence (P47870 26-474 isoform P47870-1 partner limits assumed) above
T3 sequence (P18507 40-475 partner): as the sequence (P18507 40-475 partner) above
Procedure: as §1

[4] = system: mice; assay: Prepulse inhibition test in mice, PCP-induced PPI disruption; format: in vivo; details: i.p. administration, FIG. 4
Text: FIG. 4. […] Mean values±S.E.M. (n=10-12/group) Student's t-test: vehicle vs. PCP-treated group (***p<0.001) Dunnett's test following ANOVA: PCP-treated vs. PCP+compound treated groups (#:p<0.05).
The startle reaction of a healthy rodents and humans to a strong acoustic stimulus is reduced by the prior presentation of a weak stimulus. The effect of the weak stimulus on the startle response has been termed prepulse inhibition (PPI). Reduced prepulse inhibition is a hallmark feature of attention-processing (sensorimotor gating) deficits in patients with schizophrenia and other psychotic disorders. Acute administration of phencyclidine (PCP), an antagonist of N-methyl D-aspartate (NMDA)-type glutamate receptors, disrupts PPI in rodents and this effect can be prevented by clinically effective antipsychotics. The results are illustrated in FIG. 4.

[5] = system: mice; assay: Novel object recognition test in mice; format: in vivo; details: i.p. administration, FIG. 1 and FIG. 2
Text: FIG. 1 and FIG. 2. […] Mean values±S.E.M. (n=8-11/group); Dunnett test following ANOVA (*:p<0.05, **:p<0.01, ***:p<0.001). Discrimination index: Duration of new object exploration (s)−Duration of familiar object exploration (s)/Duration of new object exploration (s)+Duration of familiar object exploration (s).
The novel object recognition test evaluates the ability of mice to detect novelty in an otherwise familiar environment. Subsequent a short exploratory period, mice are unable to discriminate between the familiar and the new object 24 hours later. […] Enhancement of the discrimination index is considered as a procognitive effect. The results are illustrated in FIG. 1 and FIG. 2.

[6] = system: rats; assay: Social interaction test in rats; format: in vivo; details: i.p. administration, FIG. 6
Text: FIG. 6. […] Mean values±S.E.M. (n=12/group) Kruskal-Wallis ANOVA followed by Mann-Whitney U test: control vs. compound-treated groups (**:p<0.05).
The social interaction test is a model used to measure anxiolytic or anxiogenic behaviour in rodents. When a pair of unfamiliar rats is placed together in the open field the animals show specific social behaviours (sniffing, following, grooming, crawling over and under other rats). Anxiolytic compounds such as benzodiazepines increase in the time spent with social interactions. In our experiment rats were submitted to the social interaction test of anxiety 30 min after drug treatment. The social interaction test consisted of 10 min of social encounters between two animals that received the same pharmacological treatment. The results are illustrated in FIG. 6.

[7] = system: mice; assay: Light-dark test in mice; format: in vivo; details: i.p. administration, FIG. 5
Procedure: FIG. 5. […] Mean values±S.E.M. (n=11-20/group) Student's t-test: vehicle vs. Diazepam-treated group (*p<0.05) Dunnett test following ANOVA: vehicle-treated vs. compound-treated groups (#:p<0.05).
The light-dark apparatus contains a light (brightly illuminated) and a dark compartment. A small opening connects the two parts. During the 5 minutes test mice were placed individually in the light compartment and allowed to explore the entire apparatus. The activity of animals was measured automatically by interruptions of horizontal and vertical infrared beams. An increase of time spent in the light area (increase in light horizontal time) is interpreted as an anxiolytic effect. The results are illustrated in FIG. 5.

[8] = HEK 293 cells expressing GABAA α1, expressed as % of GABA EC50, read-out: α1 IC50
[9] = HEK 293 cells expressing GABAA α5, expressed as % of GABA EC50, read-out: α5 IC50

Structure (SMILES)	IC50 [1] [nM]	EC50 [2] [nM]	IC50 [3] [nM]	other results
COc1ccc2oc(C3=NN=C(C)Cc4cc5c(cc43)OC(C)C(=O)N5)c(C)c2c1 (racemic) [Example 2, 6-(5-Methoxy-3-methyl-1-benzofuran-2-yl)-3,9-dimethyl-1,10-dihydro[1,4]oxazino[3,2-h][2,3]benzodiazepin-2(3H)-one]	> 10000	800	800	–
CC1=NN=C(c2sc3ccc(Cl)cc3c2C)c2cc3c(cc2C1)NC(=O)C(C)O3 (single isomer, unassigned; (+)) [Example 25, (+)-6-(5-Chloro-3-methyl-1-benzothiophen-2-yl)-3,9-dimethyl-1,10-dihydro[1,4]oxazino[3,2-h][2,3]benzodiazepin-2(3H)-one]	–	–	–	Effect in the PCP-induced PPI disruption model [4]: Ameliorating effect
CCc1c(C2=NN=C(C)Cc3cc4c(cc32)OC(C)C(=O)N4)sc2ccc(Cl)cc12 (racemic) [Example 9, 6-(5-Chloro-3-ethyl-1-benzothiophen-2-yl)-3,9-dimethyl-1,10-dihydro[1,4]oxazino[3,2-h][2,3]benzodiazepin-2(3H)-one]	–	1000	–	IC50 [1, 8]: > 10000 nM; IC50 [3, 9]: 700 nM
CC1=NN=C(c2sc3cc(Cl)c(F)cc3c2C)c2cc3c(cc2C1)NC(=O)C(C)O3 (centres unmarked) [Example 8, 6-(6-Chloro-5-fluoro-3-methyl-1-benzothiophen-2-yl)-3,9-dimethyl-1,10-dihydro[1,4]oxazino[3,2-h][2,3]benzodiazepin-2(3H)-one]	> 10000	1000	3000	–
COc1ccc2oc(C3=NN=C(C)Cc4cc5c(cc43)OC(C)C(=O)N5)c(C)c2c1 (single isomer, unassigned; (+)) [Example 4, (+)-6-(5-Methoxy-3-methyl-1-benzofuran-2-yl)-3,9-dimethyl-1,10-dihydro[1,4]oxazino[3,2-h][2,3]benzodiazepin-2(3H)-one]	–	–	–	Procognitive effect (discrimination index) in the object recognition model [5]: Procognitive effects; Anxiolytic activity in the social interaction model [6]: Anxiolytic activity
CC1=NN=C(c2oc3ccc(Cl)cc3c2C)c2cc3c(cc2C1)NC(=O)C(C)O3 (centres unmarked) [Example 12, 6-(5-Chloro-3-methyl-1-benzofuran-2-yl)-3,9-dimethyl-1,10-dihydro[1,4]oxazino[3,2-h][2,3]benzodiazepin-2(3H)-one]	> 10000	1000	3000	–
CC1=NN=C(c2sc3ccc(Cl)cc3c2C)c2cc3c(cc2C1)NC(=O)C(C)O3 (single isomer, unassigned; (-)) [Example 26, (−)-6-(5-Chloro-3-methyl-1-benzothiophen-2-yl)-3,9-dimethyl-1,10-dihydro[1,4]oxazino[3,2-h][2,3]benzodiazepin-2(3H)-one]	–	–	–	Anxiolytic activity in Light-dark test (activity in the light compartment) [7]: Anxiolytic activity
CCc1ccc2oc(C3=NN=C(C)Cc4cc5c(cc43)OC(C)C(=O)N5)c(CC)c2c1 (centres unmarked) [Example 13, 6-(3,5-Diethyl-1-benzofuran-2-yl)-3,9-dimethyl-1,10-dihydro[1,4]oxazino[3,2-h][2,3]benzodiazepin-2(3H)-one]	> 10000	1100	1300	–
CC1=NN=C(c2oc3ccc(O)cc3c2C)c2cc3c(cc2C1)NC(=O)C(C)O3 (centres unmarked) [Example 14, 6-(5-Hydroxy-3-methyl-1-benzofuran-2-yl)-3,9-dimethyl-1,10-dihydro[1,4]oxazino[3,2-h][2,3]benzodiazepin-2(3H)-one]	13700	1000	430	–
CC1=NN=C(c2sc3cccc(F)c3c2C)c2cc3c(cc2C1)NC(=O)C(C)O3 (centres unmarked) [Example 1, 6-(4-fluoro-3-methyl-1-benzothiophen-2-yl)-3,9-dimethyl-1,10-dihydro[1,4]oxazino[3,2-h][2,3]benzodiazepin-2(3H)-one]	> 10000	3500	700	–
CC1=NN=C(c2sc3cc(Cl)ccc3c2C)c2cc3c(cc2C1)NC(=O)C(C)O3 (racemic) [Example 5, 6-(6-Chloro-3-methyl-1-benzothiophen-2-yl)-3,9-dimethyl-1,10-dihydro[1,4]oxazino[3,2-h][2,3]benzodiazepin-2(3H)-one]	–	1200	–	IC50 [1, 8]: > 10000 nM; IC50 [3, 9]: 900 nM
CC1=NN=C(c2sc3ccc(Cl)cc3c2C)c2cc3c(cc2C1)NC(=O)C(C)O3 (centres unmarked) [Example 24, 6-(5-Chloro-3-methyl-1-benzothiophen-2-yl)-3,9-dimethyl-1,10-dihydro[1,4]oxazino[3,2-h][2,3]benzodiazepin-2(3H)-one]	–	–	–	Procognitive effect (discrimination index) in the object recognition model [5]: Procognitive effects
